Source: PubChem BioAssay AID1845211 (Molecular Pharmacology Branch, DTP, NCI, 2023)
Values joined by “and” are separate entries in the source; they are usually repeats but may differ in a detail not shown here. Equal entries are not always repeated.

Test system: NCI-H322M multicellular tumor spheroids, viability (% test/control)
Assay: Anticancer human tumor NCI-H322M cell line growth inhibition;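 on viability, T/C: spheroids exposed to compound for seven days before readout; 100% = DMSO vehicle control wells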
Conditions: for viability, T/C: stronger effect = lower value
Procedure, shortened: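 Complex tumor spheroids combined malignant cells with endothelial cells and mesenchymal stem cells. DNA-damaging drugs and DNA repair inhibitors were tested alone and in combination, at half-log dilutions down from clinical Cmax (top 10 microM if Cmax unknown), 0.25% DMSO final.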

[1] = curve of first compound, second compound 30 pM
[2] = curve of first compound, second compound 94.9 pM
[3] = curve of first compound, second compound 0.0003 µM
[4] = curve of first compound, second compound 0.000949 µM
[5] = curve of first compound, second compound 0.003 µM
[6] = second compound 30 pM, first compound 0.00949 µM
[7] = second compound 30 pM, first compound 0.03 µM
[8] = second compound 30 pM, first compound 0.0949 µM
[9] = second compound 30 pM, first compound 0.3 µM
[10] = second compound 30 pM, first compound 0.949 µM
[11] = second compound 30 pM, first compound 3 µM
[12] = second compound 94.9 pM, first compound 0.00949 µM
[13] = second compound 94.9 pM, first compound 0.03 µM
[14] = second compound 94.9 pM, first compound 0.0949 µM
[15] = second compound 94.9 pM, first compound 0.3 µM
[16] = second compound 94.9 pM, first compound 0.949 µM
[17] = second compound 94.9 pM, first compound 3 µM
[18] = second compound 0.0003 µM, first compound 0.00949 µM
[19] = second compound 0.0003 µM, first compound 0.03 µM
[20] = second compound 0.0003 µM, first compound 0.0949 µM
[21] = second compound 0.0003 µM, first compound 0.3 µM
[22] = second compound 0.0003 µM, first compound 0.949 µM
[23] = second compound 0.0003 µM, first compound 3 µM
[24] = second compound 0.000949 µM, first compound 0.00949 µM
[25] = second compound 0.000949 µM, first compound 0.03 µM
[26] = second compound 0.000949 µM, first compound 0.0949 µM
[27] = second compound 0.000949 µM, first compound 0.3 µM
[28] = second compound 0.000949 µM, first compound 0.949 µM
[29] = second compound 0.000949 µM, first compound 3 µM
[30] = second compound 0.003 µM, first compound 0.00949 µM
[31] = second compound 0.003 µM, first compound 0.03 µM
[32] = second compound 0.003 µM, first compound 0.0949 µM
[33] = second compound 0.003 µM, first compound 0.3 µM
[34] = second compound 0.003 µM, first compound 0.949 µM
[35] = second compound 0.003 µM, first compound 3 µM

Cc1sc2c(c1C)C(c1ccc(Cl)cc1)=NC(CC(=O)Nc1ccc(O)cc1)c1nnc(C)n1-2 (configuration not stated) + COc1cc2c(cc1O)CCNC21CSC2c3c(OC(C)=O)c(C)c4c(c3C(COC1=O)N1C(O)C3Cc5cc(C)c(OC)c(O)c5C(C21)N3C)OCO4
IC50 [1]: > 3 µM | IC50 [2]: > 3 µM | IC50 [3]: 1.59 µM | IC50 [4]: 0.333 µM | IC50 [5]: < 0.00949 µM | viability, T/C [6]: 113% | viability, T/C [7]: 118% | viability, T/C [8]: 136% | viability, T/C [9]: 112% | viability, T/C [10]: 74% | viability, T/C [11]: 60.1% | viability, T/C [12]: 104% | viability, T/C [13]: 112% | viability, T/C [14]: 123% | viability, T/C [15]: 110% | viability, T/C [16]: 72.5% | viability, T/C [17]: 53.6% | viability, T/C [18]: 117% | viability, T/C [19]: 133% | viability, T/C [20]: 133% | viability, T/C [21]: 119% | viability, T/C [22]: 63.9% | viability, T/C [23]: 33.1% | viability, T/C [24]: 127% | viability, T/C [25]: 87.6% | viability, T/C [26]: 80.7% | viability, T/C [27]: 60.2% | viability, T/C [28]: 19.5% | viability, T/C [29]: 11.9% | viability, T/C [30]: 9.9% | viability, T/C [31]: 6.99% | viability, T/C [32]: 6.13% | viability, T/C [33]: 2.83% | viability, T/C [34]: 1.47% | viability, T/C [35]: 1.17%

COc1ccc([C@@H](O)c2cc(-c3ncnc4cc(N5CCOCC5)ccc34)c(F)cc2Cl)nn1 + COc1cc2c(cc1O)CCNC21CSC2c3c(OC(C)=O)c(C)c4c(c3C(COC1=O)N1C(O)C3Cc5cc(C)c(OC)c(O)c5C(C21)N3C)OCO4
IC50 [1]: 2.34 µM | IC50 [2]: 1.64 µM | IC50 [3]: 1.4 µM | IC50 [4]: 0.433 µM | IC50 [5]: < 0.0316 µM | viability, T/C (second compound 30 pM, first compound 0.0316 µM): 101% | viability, T/C (second compound 30 pM, first compound 0.1 µM): 75.9% | viability, T/C (second compound 30 pM, first compound 0.316 µM): 79.1% | viability, T/C (second compound 30 pM, first compound 1 µM): 62.1% | viability, T/C (second compound 30 pM, first compound 3.16 µM): 45.3% | viability, T/C (second compound 30 pM, first compound 10 µM): 30.4% | viability, T/C (second compound 94.9 pM, first compound 0.0316 µM): 96% | viability, T/C (second compound 94.9 pM, first compound 0.1 µM): 89.1% | viability, T/C (second compound 94.9 pM, first compound 0.316 µM): 82.2% | viability, T/C (second compound 94.9 pM, first compound 1 µM): 55.8% | viability, T/C (second compound 94.9 pM, first compound 3.16 µM): 41.5% | viability, T/C (second compound 94.9 pM, first compound 10 µM): 32% | viability, T/C (second compound 0.0003 µM, first compound 0.0316 µM): 106% | viability, T/C (second compound 0.0003 µM, first compound 0.1 µM): 94.1% | viability, T/C (second compound 0.0003 µM, first compound 0.316 µM): 71.1% | viability, T/C (second compound 0.0003 µM, first compound 1 µM): 56.4% | viability, T/C (second compound 0.0003 µM, first compound 3.16 µM): 38.2% | viability, T/C (second compound 0.0003 µM, first compound 10 µM): 26.8% | viability, T/C (second compound 0.000949 µM, first compound 0.0316 µM): 84.2% | viability, T/C (second compound 0.000949 µM, first compound 0.1 µM): 75.7% | viability, T/C (second compound 0.000949 µM, first compound 0.316 µM): 58.7% | viability, T/C (second compound 0.000949 µM, first compound 1 µM): 28.3% | viability, T/C (second compound 0.000949 µM, first compound 3.16 µM): 5.57% | viability, T/C (second compound 0.000949 µM, first compound 10 µM): 2.25% | viability, T/C (second compound 0.003 µM, first compound 0.0316 µM): 3.77% | viability, T/C (second compound 0.003 µM, first compound 0.1 µM): 3.3% | viability, T/C (second compound 0.003 µM, first compound 0.316 µM): 5.4% | viability, T/C (second compound 0.003 µM, first compound 1 µM): 1.15% | viability, T/C (second compound 0.003 µM, first compound 3.16 µM): 1.98% | viability, T/C (second compound 0.003 µM, first compound 10 µM): 2.69%

COc1ccc([C@@H](O)c2cc(-c3ncnc4cc(N5CCOCC5)ccc34)c(F)cc2Cl)nn1 + Cn1nnc2c(C(N)=O)ncn2c1=O
IC50 (curve of first compound, second compound 1 µM): 3.69 µM | IC50 (curve of first compound, second compound 3.16 µM): 1.4 µM | IC50 (curve of first compound, second compound 10 µM): 2.04 µM | IC50 (curve of first compound, second compound 31.6 µM): 2.01 µM | IC50 (curve of first compound, second compound 100 µM): 1.92 µM | viability, T/C (second compound 1 µM, first compound 0.0316 µM): 86% | viability, T/C (second compound 1 µM, first compound 0.1 µM): 77.2% | viability, T/C (second compound 1 µM, first compound 0.316 µM): 85.8% | viability, T/C (second compound 1 µM, first compound 1 µM): 55.5% | viability, T/C (second compound 1 µM, first compound 3.16 µM): 57.1% | viability, T/C (second compound 1 µM, first compound 10 µM): 35.4% | viability, T/C (second compound 3.16 µM, first compound 0.0316 µM): 78.2% | viability, T/C (second compound 3.16 µM, first compound 0.1 µM): 80.8% | viability, T/C (second compound 3.16 µM, first compound 0.316 µM): 81.2% | viability, T/C (second compound 3.16 µM, first compound 1 µM): 52.9% | viability, T/C (second compound 3.16 µM, first compound 3.16 µM): 50.1% | viability, T/C (second compound 3.16 µM, first compound 10 µM): 35.8% | viability, T/C (second compound 10 µM, first compound 0.0316 µM): 105% | viability, T/C (second compound 10 µM, first compound 0.1 µM): 76.9% | viability, T/C (second compound 10 µM, first compound 0.316 µM): 68.2% | viability, T/C (second compound 10 µM, first compound 1 µM): 61.2% | viability, T/C (second compound 10 µM, first compound 3.16 µM): 46.8% | viability, T/C (second compound 10 µM, first compound 10 µM): 35.3% | viability, T/C (second compound 31.6 µM, first compound 0.0316 µM): 83.6% | viability, T/C (second compound 31.6 µM, first compound 0.1 µM): 94.6% | viability, T/C (second compound 31.6 µM, first compound 0.316 µM): 65.7% | viability, T/C (second compound 31.6 µM, first compound 1 µM): 58.9% | viability, T/C (second compound 31.6 µM, first compound 3.16 µM): 47.9% | viability, T/C (second compound 31.6 µM, first compound 10 µM): 39.5% | viability, T/C (second compound 100 µM, first compound 0.0316 µM): 80.7% | viability, T/C (second compound 100 µM, first compound 0.1 µM): 75.5% | viability, T/C (second compound 100 µM, first compound 0.316 µM): 82.7% | viability, T/C (second compound 100 µM, first compound 1 µM): 58.6% | viability, T/C (second compound 100 µM, first compound 3.16 µM): 44.8% | viability, T/C (second compound 100 µM, first compound 10 µM): 34.4%

CNCc1ccc(-c2cc(-c3nc(-c4ccc(S(=O)(=O)C(C)C)cc4)cnc3N)on2)cc1 + COc1cc2c(cc1O)CCNC21CSC2c3c(OC(C)=O)c(C)c4c(c3C(COC1=O)N1C(O)C3Cc5cc(C)c(OC)c(O)c5C(C21)N3C)OCO4
IC50 [1]: > 3 µM | IC50 [2]: > 3 µM | IC50 [3]: > 3 µM | IC50 [4]: 0.479 µM | IC50 [5]: < 0.00949 µM | viability, T/C [6]: 98.7% | viability, T/C [7]: 102% | viability, T/C [8]: 82.5% | viability, T/C [9]: 76.4% | viability, T/C [10]: 69.5% | viability, T/C [11]: 70% | viability, T/C [12]: 95.5% | viability, T/C [13]: 80.2% | viability, T/C [14]: 85.6% | viability, T/C [15]: 73.4% | viability, T/C [16]: 66.4% | viability, T/C [17]: 66.1% | viability, T/C [18]: 85.7% | viability, T/C [19]: 85.8% | viability, T/C [20]: 77.8% | viability, T/C [21]: 60.5% | viability, T/C [22]: 59.4% | viability, T/C [23]: 59.2% | viability, T/C [24]: 81.9% | viability, T/C [25]: 76.9% | viability, T/C [26]: 71.4% | viability, T/C [27]: 51.9% | viability, T/C [28]: 47.3% | viability, T/C [29]: 44.4% | viability, T/C [30]: 9.27% | viability, T/C [31]: 10.9% | viability, T/C [32]: 10.1% | viability, T/C [33]: 9.72% | viability, T/C [34]: 12.4% | viability, T/C [35]: 7.67%

CC(C)n1c(=O)n(C)c2cnc3cc(F)c(-c4ccc(OCCCN5CCCCC5)nc4)cc3c21
viability, T/C (compound 0.0316 µM): 60.1% and 96% and 88.1% | viability, T/C (compound 0.1 µM): 80.2% and 82.2% and 112% | viability, T/C (compound 0.316 µM): 70.4% and 78.7% and 83.2% | viability, T/C (compound 1 µM): 73.2% and 102% and 112% | viability, T/C (compound 3.16 µM): 76.8% and 85.2% and 87.2% | viability, T/C (compound 10 µM): 56.8% and 79.3% and 85% | IC50 (curve of compound): > 10 µM
